Test results: PMC3784021 (Analytical biochemistry, 2013)

Molecular target: T1, AMSH (Associated Molecule with the SH3 domain of STAM) (Homo sapiens, UniProt O95630)
T1 sequence (O95630 219-424): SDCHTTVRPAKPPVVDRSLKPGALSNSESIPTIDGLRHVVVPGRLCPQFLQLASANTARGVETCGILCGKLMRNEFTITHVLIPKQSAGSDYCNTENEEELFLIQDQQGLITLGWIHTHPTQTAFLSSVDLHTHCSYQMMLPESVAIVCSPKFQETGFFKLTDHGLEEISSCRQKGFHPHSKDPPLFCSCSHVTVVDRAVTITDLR
Test: FRET deubiquitinase assay with Lys63-linked diubiquitin probe
Format: biochemical

With `CCN1C(=O)C=CC1=O` [NEM, N-ethylmaleimide] the IC50 was 16.2 ± 3.1 µM.
